# Measurements published in patent publication US20190369111A1, “MOLECULAR KINETICS EVALUATION METHOD AND SCREENING METHOD” (Tokyo University of Science Foundation, priority 2016, published 2019).
# Biological target: T1, MDM2 protein (Homo sapiens, UniProt Q00987)
# T1 construct: an endogenous wild-type p53 protein and MDM2 protein in HCT116 cells (human large intestine cancer cells); endogenous in cells; host or cells: HCT116 cells
# Experiment: Degradation of endogenous MDM2 protein in HCT116 cells, Western blot analysis
# Assay type: cell-based
# Details: 48 hours after addition
# Method: HCT116 cells were seeded in a 24-well plate at a cell density of 8×10^4 cells/well, and then cultured under conditions of 37° C. and 5 vol % CO2 for 16 hours.
# After 16 hours from cell seeding, TIBC-CANDDY_MLN or TIBC was added to HCT116 cells as follows. As a medium, a serum-free medium (37° C.) in which 1 mass % L-glutamine solution (Sigma-Aldrich) was added to D-MEM (high D-glucose, phenol red, sodium pyruvate (Wako Pure Chemical Industries, Ltd.)) was used. It is noted that the L-glutamine solution was added immediately before use. A DMSO solution containing TIBC-CANDDY_MLN or TIBC was mixed with the medium so that the concentration of DMSO was 1 vol %, and added to each well at 500 μL/well, and cultured under conditions of 37° C. and 5 vol % CO2. As a control, DMSO was used.
# The medium was removed 48 hours after addition of TIBC-CANDDY_MLN or TIBC, and then PBS was added to wash the cells. […]
# After electrophoresis, proteins were transferred to a PVDF membrane (Immobion™-P, Millipore) under conditions of 100 V and 2 hours using a tank-type blotting device and a transfer buffer (25 mM Tris-HCl, 195 mM glycine, 0.01% SDS, 15% methanol). […] Subsequently, the membrane was treated with a chemiluminescence reagent Immobilon™ Western (Millipore), and then chemiluminescence was detected using a lumino image analyzer LAS-3000 (FUJIFILM Corporation).
# T1 sequence (Q00987 whole entry): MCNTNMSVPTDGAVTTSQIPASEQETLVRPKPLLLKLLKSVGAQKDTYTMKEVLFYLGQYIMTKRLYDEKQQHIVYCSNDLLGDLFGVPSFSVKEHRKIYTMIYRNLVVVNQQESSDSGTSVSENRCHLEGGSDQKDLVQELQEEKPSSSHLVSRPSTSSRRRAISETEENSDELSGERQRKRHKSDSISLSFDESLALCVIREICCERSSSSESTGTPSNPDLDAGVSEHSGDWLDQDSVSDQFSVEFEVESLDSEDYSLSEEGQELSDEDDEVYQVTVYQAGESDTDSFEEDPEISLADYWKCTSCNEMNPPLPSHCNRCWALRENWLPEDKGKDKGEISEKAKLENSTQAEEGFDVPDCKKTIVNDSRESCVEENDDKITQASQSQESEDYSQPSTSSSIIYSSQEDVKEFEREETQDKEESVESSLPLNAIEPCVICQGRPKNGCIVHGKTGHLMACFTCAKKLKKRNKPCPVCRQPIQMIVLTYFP
smiles,measurement,value
CC(C)C[C@H](NC(=O)CNC(=O)c1cc(Cl)ccc1Cl)C(=O)NCCCCCCC(=O)Nc1ccc(C(=O)/C=C/c2ccc(I)cc2)cc1 [TIBC-CANDDY_MLN],amount of endogenous MDM2 protein,reduced
